Patent US10294202B2, “Pyrrolidinones as herbicides” (FMC Corporation, priority 2013, dated 2019)

Experiments:
sedge, umbrella = assay: Test B flooded paddy test; format: in vivo, Cyperus difformis; conditions: 500 g ai/ha, Flood; scale of 0 to 100 where 0 is no effect and 100 is complete control
Outline: (§1)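 Scored visually 0–100 (0 no effect, 100 complete control) versus controls after 13 to 15 greenhouse days. Treatment: compound added to paddy water kept 3 cm above soil, on 2-leaf-stage plants.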

ryegrass, Italian = assay: Test A pre-/postemergence herbicide test; format: in vivo, Lolium multiflorum; conditions: for Plant response rating, Ryegrass, Italian: 0 to 100 scale
Outline: (§2)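 Planted in loam–sand blend; treated the same day preemergence by directed soil spray, while separately grown plants at one- to two-leaf stage got postemergence spray. Compared visually with untreated controls after approximately 10 days; 100 means complete control.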

galium = assay: Test A postemergence herbicide test; format: in vivo, Galium aparine
Outline: (§3)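 Visual injury rating, 0 (no effect) to 100 (complete control), versus untreated controls ~10 days after treatment. Postemergence spray applied at one- to two-leaf stage, plants 2–10 cm tall, potted in loam soil/sand. Greenhouse-held.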

pigweed = assay: Test A pre-/postemergence herbicide test; format: in vivo, Amaranthus retroflexus; conditions: for Plant response rating, Pigweed: 0 to 100 scale
Outline: as §2

ragweed = assay: Test A pre-/postemergence herbicide test; format: in vivo, Ambrosia elatior; conditions: for Plant response rating, Ragweed: 0 to 100 scale
Outline: as §2

barnyardgrass [1] = assay: Test A pre-/postemergence herbicide test; format: in vivo, Echinochloa crus-galli
Outline: as §2

ducksalad = assay: Test B flooded paddy test; format: in vivo, Heteranthera limosa; conditions: 500 g ai/ha, Flood; scale of 0 to 100 where 0 is no effect and 100 is complete control
Outline: as §1

rice = assay: Test B flooded paddy test; format: in vivo, Oryza sativa; conditions: 500 g ai/ha, Flood; scale of 0 to 100 where 0 is no effect and 100 is complete control
Outline: as §1

kochia = assay: Test A pre-/postemergence herbicide test; format: in vivo, Kochia scoparia; conditions: for Plant response rating, Kochia: 0 to 100 scale
Outline: as §2

barnyardgrass [2] = assay: Test B flooded paddy test; format: in vivo, Echinochloa crus-galli; conditions: 500 g ai/ha, Flood; scale of 0 to 100 where 0 is no effect and 100 is complete control
Outline: as §1

giant foxtail = assay: Test A pre-/postemergence herbicide test; format: in vivo, Setaria faberii; conditions: for Plant response rating, Foxtail, Giant: 0 to 100 scale
Outline: as §2

blackgrass = assay: Test A postemergence herbicide test; format: in vivo, Alopecurus myosuroides
Outline: as §3

corn = assay: Test A pre-/postemergence herbicide test; format: in vivo, Zea mays; conditions: Postemergence
Outline: as §2

wheat = assay: Test A pre-/postemergence herbicide test; format: in vivo, Triticum aestivum; conditions: Postemergence
Outline: as §2

[3] = 125 g ai/ha, visual rating, 0 no effect, 100 complete control, approximately 10 days, preemergence
[4] = Postemergence, 125 g ai/ha, 0 no effect, 100 complete control
[5] = 125 g ai/ha, 0 to 100 scale, 0 no effect, 100 complete control

`COc1cc(C2CNC(=O)C2C(=O)Nc2ccc(F)c(F)c2F)ccc1F` (racemic) [Compound 132] was tested, and the “Plant response rating, Sedge, Umbrella” value (sedge, umbrella) was 0, the “Plant response rating, Ryegrass, Italian” value (ryegrass, Italian; [3]) was 0 and the “Plant response rating, Ryegrass, Italian” value (ryegrass, Italian; [4]) was 0. The “Ryegrass, Italian plant response rating (0 to 100 scale, 0 is no effect, 100 is complete control)” value (ryegrass, Italian; Postemergence, 500 g ai/ha) was 0, the “Plant response rating, Ryegrass, Italian” value (ryegrass, Italian; preemergence, 500 g ai/ha) was 0 and the “Plant response rating, Galium” value (galium; [5]) was 0. The “Galium plant response rating (0 to 100 scale, 0 is no effect, 100 is complete control)” value (galium; 500 g ai/ha) was 0, the “Plant response rating, Pigweed” value (pigweed; [3]) was 0 and the “Plant response rating, Pigweed” value (pigweed; [4]) was 0. For the same compound, the “Pigweed plant response rating (0 to 100 scale, 0 is no effect, 100 is complete control)” value (pigweed; Postemergence, 500 g ai/ha) was 0, the “Plant response rating, Pigweed” value (pigweed; preemergence, 500 g ai/ha) was 0 and the “Plant response rating, Ragweed” value (ragweed; [3]) was 0. For the same compound, the “Plant response rating, Ragweed” value (ragweed; [4]) was 0, the “Ragweed plant response rating (0 to 100 scale, 0 is no effect, 100 is complete control)” value (ragweed; Postemergence, 500 g ai/ha) was 0 and the “Plant response rating, Ragweed” value (ragweed; preemergence, 500 g ai/ha) was 0. The “Plant response rating, Barnyardgrass” value (barnyardgrass [1]; 125 g ai/ha, visual rating, 0 to 100 scale, 0 no effect, 100 complete control, approximately 10 days, preemergence) was 70, the “Plant response rating, Barnyardgrass” value (barnyardgrass [1]; Postemergence, 125 g ai/ha, 0 to 100 scale, 0 no effect, 100 complete control) was 60 and the “Barnyardgrass plant response rating (0 to 100 scale, 0 is no effect, 100 is complete control)” value (barnyardgrass [1]; Postemergence, 500 g ai/ha) was 80. For the same compound, the “Plant response rating, Barnyardgrass” value (barnyardgrass [1]; preemergence, 500 g ai/ha, 0 to 100 scale (0 no effect, 100 complete control)) was 90, the “Plant response rating, Ducksalad” value (ducksalad) was 85 and the “Plant response rating, Rice” value (rice) was 0. The “Plant response rating, Kochia” value (kochia; [3]) was 0, the “Plant response rating, Kochia” value (kochia; [4]) was 0 and the “Kochia plant response rating (0 to 100 scale, 0 is no effect, 100 is complete control)” value (kochia; Postemergence, 500 g ai/ha) was 10. For the same compound, the “Plant response rating, Kochia” value (kochia; preemergence, 500 g ai/ha) was 0, the “Plant response rating, Barnyardgrass” value (barnyardgrass [2]) was 40 and the “Plant response rating, Foxtail, Giant” value (giant foxtail; [3]) was 70. For the same compound, the “Plant response rating, Foxtail, Giant” value (giant foxtail; [4]) was 50, the “Foxtail, Giant plant response rating (0 to 100 scale, 0 is no effect, 100 is complete control)” value (giant foxtail; Postemergence, 500 g ai/ha) was 70 and the “Plant response rating, Foxtail, Giant” value (giant foxtail; preemergence, 500 g ai/ha) was 80. The “Plant response rating, Blackgrass” value (blackgrass; [5]) was 0, the “Blackgrass plant response rating (0 to 100 scale, 0 is no effect, 100 is complete control)” value (blackgrass; 500 g ai/ha) was 0 and the “Plant response rating, Corn” value (corn; [5]) was 0. For the same compound, the “Corn plant response rating (0 to 100 scale, 0 is no effect, 100 is complete control)” value (corn; 500 g ai/ha) was 0, the “Plant response rating, Wheat” value (wheat; [5]) was 0 and the “Wheat plant response rating (0 to 100 scale, 0 is no effect, 100 is complete control)” value (wheat; 500 g ai/ha) was 0.
